Assay results reported in patent US20030166922A1, “Novel cephalosporin compounds and process for preparing the same” (priority 2000, published 2003).
Values after ≈ are worked out from the molar mass of the structure shown. Read-outs that look alike come from different tables or passages of the source.

Columns and labels:
Test in all cases: Minimum Inhibitory Concentration (MIC), agar dilution, standard strains
E. faecalis EFS004 = format: cell-based; conditions: Table 2; Mueller-Hinton agar, 37° C., 20 hours
Experimental: (§1) Minimum Inhibitory Concentration (MIC)
(§2) The effectiveness of the compound according to the present invention was determined by obtaining Minimum Inhibitory Concentration (MIC) of the compounds prepared by the above Examples (I-1 to I-33) and vancomycin, which is the known compound having a potent activity against gram-positive strains, as the control drug against the standard strains. Specifically, Minimum Inhibitory Concentration was obtained by diluting the test material with a double dilution method, dispersing them in Mueller-Hinton agar medium, inoculating each of the test strain having 10^7 cfu (colny forming unit) in an amount of 2:1 to the medium and then incubating them at 37° C. for 20 hours.

[1] = system: Staphylococcus aureus giorgio; format: cell-based; conditions: Mueller-Hinton agar, 37° C., 20 hours; for Minimum Inhibitory Concentration (MIC), S. aureus giorgio: Table 2; for Minimum Inhibitory Concentration (MIC), Staphylococcus aureus giorgio / MIC: Table 1; for MIC: Staphylococcus aureus, read-out: Minimum Inhibitory Concentration (MIC), Staphylococcus aureus giorgio
Experimental: as §1, §2

S. epidermidis R005 = format: cell-based; conditions: Mueller-Hinton agar, 37° C., 20 hours; for MIC: Staphylococcus epidermidis, R005, read-out: Minimum Inhibitory Concentration (MIC), S. epidermidis R005
Experimental: as §1, §2

S. aureus K311 = format: cell-based, Staphylococcus aureus; conditions: Table 2; Mueller-Hinton agar, 37° C., 20 hours
Experimental: as §1, §2

S. aureus 77 = format: cell-based, Staphylococcus aureus; conditions: Mueller-Hinton agar, 37° C., 20 hours; for MIC: Staphylococcus aureus, 77, read-out: Minimum Inhibitory Concentration (MIC), S. aureus 77
Experimental: as §1, §2

E. faecalis L239 = format: cell-based; conditions: Table 1, Mueller-Hinton agar, 37° C., 20 hours; for MIC: Enterococcus faecalis, L239, read-out: Minimum Inhibitory Concentration (MIC), E. faecalis L239
Experimental: as §1, §2

S. aureus 241 = format: cell-based, Staphylococcus aureus; conditions: Table 1, Mueller-Hinton agar, 37° C., 20 hours; for MIC: Staphylococcus aureus, 241, read-out: Minimum Inhibitory Concentration (MIC), S. aureus 241
Experimental: as §1, §2

In the case of `C[n+]1c(SCSC2=C(C(=O)O)N3C(=O)[C@@H](NC(=O)CSc4cc(Cl)nc(Cl)c4)[C@H]3SC2)cc(N)nc1N` [Example I-33, 2,4-diamino-6-[({[(6R,7R)-2-carboxy-7-({2-[(2,6-dichloro-4-pyridinyl)sulf-anyl]acetyl}amino)-8-oxo-5-thia-1-azabicyclo[4.2.0]oct-2-en-3-yl]sulfanyl}methyl)sulfan-yl]-1-methylp yrimidin-1-ium], the “Minimum Inhibitory Concentration (MIC), E. faecalis EFS004” value (E. faecalis EFS004) is reported as 0.5 :g/ml, the “Minimum Inhibitory Concentration (MIC), S. aureus giorgio” value [1] is reported as 0.031 :g/ml and the “Minimum Inhibitory Concentration (MIC), S. epidermidis R005” value (S. epidermidis R005; Table 2) is reported as 0.25 :g/ml. The “Minimum Inhibitory Concentration (MIC), S. aureus K311” value (S. aureus K311) was 1 :g/ml and the “Minimum Inhibitory Concentration (MIC), S. aureus 77” value (S. aureus 77; Table 2) was 0.25 :g/ml.

In the case of `Nc1cc(SCSC2=C(C(=O)O)N3C(=O)[C@@H](NC(=O)CSc4cc(Cl)nc(Cl)c4)[C@H]3SC2)nc(N)n1` [Example I-24, (6R,7R)-3-({[(2,6-diamino-4-pyrimidinyl)sulfanyl]methyl}sulfanyl)-7-({2-[(2,6-dichloro-4-pyridinyl)sulfanyl]acetyl}amino)-8-oxo-5-thia-1-azabicyclo[4.2.0]oct-2-ene-2-carboxylic acid], the “Minimum Inhibitory Concentration (MIC), E. faecalis EFS004” value (E. faecalis EFS004) is reported as 0.5 :g/ml, the “Minimum Inhibitory Concentration (MIC), S. aureus giorgio” value [1] is reported as 0.016 :g/ml and the MIC (S. epidermidis R005; Table 2) is reported as 0.25 µg/mL (≈ 0.412 µM). For the same compound, the “Minimum Inhibitory Concentration (MIC), S. aureus K311” value (S. aureus K311) was 0.5 :g/ml and the MIC (S. aureus 77; Table 2) was 0.25 µg/mL (≈ 0.412 µM).

In the case of `CCSc1nc(C)cc(SCSC2=C(C(=O)O)N3C(=O)[C@@H](NC(=O)CSc4cc(Cl)ccc4Cl)[C@H]3SC2)n1` [Example I-12, (6R,7R)-7-({2-[(2,5-dichlorophenyl)sulfanyl]acetyl}amino)-3-[({[2-(ethylsul-fanyl)-6-methyl-4-pyrimidinyl]sulfanyl}methyl)sulfanyl]-8-oxo-5-thia-1-azabicyclo[4.2. 0]oct-2-ene-2-carboxylic acid], the “Minimum Inhibitory Concentration (MIC), Staphylococcus aureus giorgio” value [1] is reported as 0.031 :g/ml, the “Minimum Inhibitory Concentration (MIC), S. epidermidis R005” value (S. epidermidis R005; Table 1) is reported as 0.5 :g/ml and the “Minimum Inhibitory Concentration (MIC), E. faecalis L239” value (E. faecalis L239) is reported as 0.25 :g/ml. For the same compound, the “Minimum Inhibitory Concentration (MIC), S. aureus 241” value (S. aureus 241) was 4 :g/ml and the “Minimum Inhibitory Concentration (MIC), S. aureus 77” value (S. aureus 77; Table 1) was 0.5 :g/ml.

With `Nc1nc(SCSC2=C(C(=O)O)N3C(=O)[C@@H](NC(=O)CSc4cc(Cl)ccc4Cl)[C@H]3SC2)nc2c1CCC2` [Example I-9, (6R,7R)-3-({[(4-amino-6,7-dihydro-5H-cyclopenta[d]pyrimidin-2-yl)sulfany-1]methyl}sulfanyl)-7-({2-[(2,5-dichlorophenyl)sulfanyl]acetyl}amino)-8-oxo-5-thia-1-aza-bicyclo[4.2.0]oct-2-ene-2-carboxylic acid] the “Minimum Inhibitory Concentration (MIC), Staphylococcus aureus giorgio” value [1] was <0.008 :g/ml, the “Minimum Inhibitory Concentration (MIC), S. epidermidis R005” value (S. epidermidis R005; Table 1) was 0.25 :g/ml and the “Minimum Inhibitory Concentration (MIC), E. faecalis L239” value (E. faecalis L239) was 0.25 :g/ml. The “Minimum Inhibitory Concentration (MIC), S. aureus 241” value (S. aureus 241) was 4 :g/ml and the “Minimum Inhibitory Concentration (MIC), S. aureus 77” value (S. aureus 77; Table 1) was 0.25 :g/ml.

With `Nc1cc(SCSC2=C(C(=O)O)N3C(=O)[C@@H](NC(=O)CNc4cc(Cl)ccc4Cl)[C@H]3SC2)nc(N)n1` [Example I-5] the “Minimum Inhibitory Concentration (MIC), Staphylococcus aureus giorgio” value [1] was 0.016 :g/ml, the “Minimum Inhibitory Concentration (MIC), S. epidermidis R005” value (S. epidermidis R005; Table 1) was 0.5 :g/ml and the “Minimum Inhibitory Concentration (MIC), E. faecalis L239” value (E. faecalis L239) was 1 :g/ml. For the same compound, the “Minimum Inhibitory Concentration (MIC), S. aureus 241” value (S. aureus 241) was 8 :g/ml and the “Minimum Inhibitory Concentration (MIC), S. aureus 77” value (S. aureus 77; Table 1) was 0.5 :g/ml.

With `Cn1c(N)n[n+]2c(SCSC3=C(C(=O)O)N4C(=O)[C@@H](NC(=O)CSc5cc(Cl)ccc5Cl)[C@H]4SC3)nc(N)cc12` [Example I-14, (6R,7R)-2,7-diamino-5-[({[2-carboxy-7-({2-[(2,5-dichlorophenyl)sulfany-1]acetyl}amino)-8-oxo-5-thia-1-azabicyclo[4.2.0]oct-2-en-3-yl]sulfanyl}methyl)sulfanyl]-1-methyl-1H,2H, 3H-[1,2,4]triazolo[1,5-c]pyrimidin-4-ium] the “Minimum Inhibitory Concentration (MIC), Staphylococcus aureus giorgio” value [1] was <0.008 :g/ml, the “Minimum Inhibitory Concentration (MIC), S. epidermidis R005” value (S. epidermidis R005; Table 1) was 0.13 :g/ml and the “Minimum Inhibitory Concentration (MIC), E. faecalis L239” value (E. faecalis L239) was 0.13 :g/ml. The “Minimum Inhibitory Concentration (MIC), S. aureus 241” value (S. aureus 241) was 2 :g/ml and the “Minimum Inhibitory Concentration (MIC), S. aureus 77” value (S. aureus 77; Table 1) was 0.25 :g/ml.

`Nc1nc(SCSC2=C(C(=O)O)N3C(=O)[C@@H](NC(=O)CSc4cc(Cl)ccc4Cl)[C@H]3SC2)c2c([n+]1N)CCC2` [Example I-11, (6R,7R)-1 ,2-diamino-4-[({(E)-3-[2-carboxy-7-({2-[(2,5-dichlorophenyl)sulf-anyl]acetyl}amino)-8-oxo-5-thia-1-azabicyclo[4.2.0]oct-2-en-3-yl]sulfanyl}methyl)sulfan-yl]-6,7-dihyd ro-5H-cyclopenta[d]pyrimidin-1-ium] was tested, and the “Minimum Inhibitory Concentration (MIC), Staphylococcus aureus giorgio” value [1] was <0.008 :g/ml, the “Minimum Inhibitory Concentration (MIC), S. epidermidis R005” value (S. epidermidis R005; Table 1) was 0.063 :g/ml and the “Minimum Inhibitory Concentration (MIC), E. faecalis L239” value (E. faecalis L239) was 0.25 :g/ml. For the same compound, the “Minimum Inhibitory Concentration (MIC), S. aureus 241” value (S. aureus 241) was 1 :g/ml and the “Minimum Inhibitory Concentration (MIC), S. aureus 77” value (S. aureus 77; Table 1) was 0.063 :g/ml.

Work on `Nc1nc(O)cc(SCSC2=C(C(=O)O)N3C(=O)[C@@H](NC(=O)CSc4c(Cl)cccc4Cl)[C@H]3SC2)n1` [Example I-3, (6R,7R)-3-({[(2-amino-6-hydroxy-4-pyrimidinyl)sulfanyl]methyl}sulfanyl)-7-({2-[(2,6-dic hlorophenyl)sulfanyl]acetyl}amino)-8-oxo-5-thia-1-azabicyclo[4.2.0]oct-2-ene-2-carboxylic acid] yielded an MIC [1] of less than 0.008 µg/mL, an MIC (S. epidermidis R005; Table 1) of 0.13 µg/mL (≈ 0.214 µM) and an MIC (E. faecalis L239) of 0.5 µg/mL (≈ 0.824 µM). The MIC (S. aureus 241) was 8 µg/mL (≈ 13.2 µM) and the MIC (S. aureus 77; Table 1) was 0.25 µg/mL (≈ 0.412 µM).

Compound `Nc1cc(N)nc(SCSC2=C(C(=O)O)N3C(=O)[C@@H](NC(=O)CSc4cc(Cl)ccc4Cl)[C@H]3SC2)n1` [Example I-16, (6R,7R)-3-({[(4,6-diamino-2-pyrimidinyl)sulfanyl]methyl}sulfanyl)-7-({2-[(2,5-dichlorophenyl)sulfanyl]acetyl}amino)-8-oxo-5-thia-1-azabicyclo[4.2.0]oct-2-ene-2-carboxylic acid] has an MIC [1] of less than 0.008 µg/mL, an MIC (S. epidermidis R005; Table 1) of 0.063 µg/mL (≈ 0.104 µM) and an MIC (E. faecalis L239) of 0.5 µg/mL (≈ 0.826 µM). The MIC (S. aureus 241) was 2 µg/mL (≈ 3.3 µM) and the MIC (S. aureus 77; Table 1) was 0.25 µg/mL (≈ 0.413 µM).

For `Nc1cc(N)[n+](N)c(SCSC2=C(C(=O)O)N3C(=O)[C@@H](NC(=O)CSc4cc(Cl)ccc4Cl)[C@H]3SC2)n1` [Example I-10, (6R,7R)-1,4,6-triamino-2-[({[2-carboxy-7-({2-[(2,5-dichlorophenyl)sulfany-1]acetyl}amino)-8-oxo-5-thia-1-azabicyclo[4.2.0]oct-2-en-3-yl]sulfanyl}methyl)sulfanyl]p-yrimidin-1-iu m], the “Minimum Inhibitory Concentration (MIC), Staphylococcus aureus giorgio” value [1] was <0.008 :g/ml, the “Minimum Inhibitory Concentration (MIC), S. epidermidis R005” value (S. epidermidis R005; Table 1) was 0.13 :g/ml and the “Minimum Inhibitory Concentration (MIC), E. faecalis L239” value (E. faecalis L239) was 0.5 :g/ml. For the same compound, the “Minimum Inhibitory Concentration (MIC), S. aureus 241” value (S. aureus 241) was 4 :g/ml and the “Minimum Inhibitory Concentration (MIC), S. aureus 77” value (S. aureus 77; Table 1) was 0.25 :g/ml.

For `Cc1c(N)nc(SCSC2=C(C(=O)O)N3C(=O)[C@@H](NC(=O)CSc4cc(Cl)ccc4Cl)[C@H]3SC2)nc1N` [Example I-18, (6R,7R)-3-({[(4,6-diamino-5-methyl-2-pyrimidinyl)sulfanyl]methyl}sulfan-yl)-7-({2-[(2,5-dichlorophenyl)sulfanyl]acetyl}amino)-8-oxo-5-thia-1-azabicyclo[4.2.0]oc-t-2-ene-2-carb oxylic acid], the “Minimum Inhibitory Concentration (MIC), Staphylococcus aureus giorgio” value [1] was 0.016 :g/ml, the “Minimum Inhibitory Concentration (MIC), S. epidermidis R005” value (S. epidermidis R005; Table 1) was 0.25 :g/ml and the “Minimum Inhibitory Concentration (MIC), E. faecalis L239” value (E. faecalis L239) was 0.5 :g/ml. The “Minimum Inhibitory Concentration (MIC), S. aureus 241” value (S. aureus 241) was 4 :g/ml and the “Minimum Inhibitory Concentration (MIC), S. aureus 77” value (S. aureus 77; Table 1) was 0.25 :g/ml.

With `CNc1[n+](C)c(N)nc(SCSC2=C(C(=O)O)N3C(=O)[C@@H](NC(=O)CSc4cc(Cl)ccc4Cl)[C@H]3SC2)[n+]1N` [Example I-19, (6R,7R)-1,4-diamino-6-[({[2-carboxy-7-({2-[(2,5-dichlorophenyl)sulfany-1]acetyl}amino)-8-oxo-5-thia-1-azabicyclo[4.2.0]oct-2-en-3-yl]sulfanyl}methyl)sulfanyl]-3-methyl-2-(methylamino)-1,3,5-triazine-1,3-diium] the “Minimum Inhibitory Concentration (MIC), Staphylococcus aureus giorgio” value [1] was 0.063 :g/ml, the “Minimum Inhibitory Concentration (MIC), S. epidermidis R005” value (S. epidermidis R005; Table 1) was 2 :g/ml and the “Minimum Inhibitory Concentration (MIC), E. faecalis L239” value (E. faecalis L239) was 4 :g/ml. The “Minimum Inhibitory Concentration (MIC), S. aureus 241” value (S. aureus 241) was 32 :g/ml and the “Minimum Inhibitory Concentration (MIC), S. aureus 77” value (S. aureus 77; Table 1) was 4 :g/ml.
